Reference: patent US10363239B2, “Method for inhibiting growth of cancer cells” (Pain Therapeutics, Inc., priority 2013, dated 2019)
Read-outs that look alike come from different tables or passages of the source.

Columns and labels:
[1] = system: non-small cell lung cancer cell lines; assay: Glucose utilization; format: cell-based, human; details: data not shown
Experimental: (§1) To determine the effect of Compound C0105 on glucose utilization, the cancer and primary normal cells were plated extremely thinly (10%). Once cells attached, Compound C0105 was added at 0.1, 0.5, 1 or 5 nM in the medium twice daily (6 hours apart) for 4 days. The cells were serum-deprived (glucose deprived) for 2 hours. Cells were then rinsed with 1 ml PBS and glucose uptake was assessed by contacting the cells with [^3H]glucose (0.01 uCi/l ml) in Kreb's Ringer for 2 hours. Cells were then rinsed with 1 ml PBS 3 times, scraped off and their glucose content counted by liquid scintillation spectrophotometry.
. Primary lung fibroblast cells were used as control, non-cancerous cells to illustrate the difference in effects observed (FIG. 1C, FIGS. 1H-1I).

melanoma cells (A2058) = assay: [3H]glucose uptake; format: cell-based, human; details: C0105 0.1-5 nM, other compounds 1 and 5 nM, twice daily for 4 days
Experimental: as §1, with “FIG. 1A through FIG. 1M illustrate the effects of various FLNA-binding compounds on glucose uptake in glioblastoma, melanoma, breast and pancreatic cancer cell lines, along with appropriate non-cancerous primary cell controls. Cells were grown in the absence or presence of 0.1-5 nM indicated compounds for 4 days. Following brief washes with PBS, cells were serum-deprived for 4 hours and then incubated in oxygenated Kreb's Ringer containing 0.1 μCi [^3H]glucose for 2 hours under constant oxygenation. The reaction was terminated by removal of the incubation medium, and cells were washed and scraped off to determine the amounts of [^3H]glucose in cells by scintillation spectrometry. […] N=5-6. […] . […] . To” for “To”
(§2) Both glioblastoma and melanoma cells were plated extremely thinly. Once cells attached, Compound C0105 was added at 0.1, 0.5, 1 and 5 nM, whereas the other compounds were present at 1 and 5 nM in the medium twice daily (6 hours apart) for 4 days. The cells were serum-deprived (glucose deprived) for 2 hours. Cells were then rinsed with 1 ml PBS and glucose uptake was assessed by contacting the cells with [3H]glucose (0.01 uCi/l ml) of Kreb's Ringer for 2 hours. Cells were then rinsed with 1 ml PBS 3 times, scraped off and their glucose contents counted by liquid scintillation spectrophotometry.

[2] = system: glioblastoma cells (U-87 MG); assay: [3H]glucose uptake; format: cell-based, human; details: C0105 0.1-5 nM, other compounds 1 and 5 nM, twice daily for 4 days
Experimental: as §1, with “FIG. 1A through FIG. 1M illustrate the effects of various FLNA-binding compounds on glucose uptake in glioblastoma, melanoma, breast and pancreatic cancer cell lines, along with appropriate non-cancerous primary cell controls. Cells were grown in the absence or presence of 0.1-5 nM indicated compounds for 4 days. Following brief washes with PBS, cells were serum-deprived for 4 hours and then incubated in oxygenated Kreb's Ringer containing 0.1 μCi [^3H]glucose for 2 hours under constant oxygenation. The reaction was terminated by removal of the incubation medium, and cells were washed and scraped off to determine the amounts of [^3H]glucose in cells by scintillation spectrometry. […] N=5-6. […] . […] . To” for “To”
as §2

primary lung fibroblasts = assay: [3H]glucose uptake; format: cell-based, human; details: C0105 0.1-5 nM, other compounds 1 or 5 nM; 4 days
Experimental: as §1, with “FIG. 1A through FIG. 1M illustrate the effects of various FLNA-binding compounds on glucose uptake in glioblastoma, melanoma, breast and pancreatic cancer cell lines, along with appropriate non-cancerous primary cell controls. Cells were grown in the absence or presence of 0.1-5 nM indicated compounds for 4 days. Following brief washes with PBS, cells were serum-deprived for 4 hours and then incubated in oxygenated Kreb's Ringer containing 0.1 μCi [^3H]glucose for 2 hours under constant oxygenation. The reaction was terminated by removal of the incubation medium, and cells were washed and scraped off to determine the amounts of [^3H]glucose in cells by scintillation spectrometry. […] N=5-6. […] . […] . To” for “To”
as §2

mu opiate receptor (MOR) = assay: MOR agonist activity using [35S]GTPγS binding assay in striatal membranes; format: biochemical; details: for MOR agonist activity ([35S]GTPγS binding), FLNA-Binding Compound as Agonist 1 μM + BFNA: 1 μM compound + 1 μM β-funaltrexamine
Summary of the method: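 Striatal membranes (200 μg) were preincubated 5 min at 30 °C in HEPES pH 7.5 with 100 mM NaCl, 1 mM MgCl2 and 0.5 nM [35S]GTPγS, then 5 min more with 0.1–10 μM compound. Gαo was immunoprecipitated and bound radioactivity counted by scintillation.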

[3] = target: FLNA pentapeptide of SEQ ID NO: 1 (Bn-VAKGL) (Homo sapiens, UniProt P21333); assay: FITC-NLX-based FLNA screening assay (inhibition of FITC-naloxone binding to Bn-VAKGL on streptavidin plates); details: 10 nM FITC-NLX
more than 65 receptors = assay: Standard binding assay on more than 65 receptors; details: 10 μM concentration
sigma σ1 receptor = sigma σ1 receptor (Homo sapiens, UniProt Q99720); assay: Standard receptor binding assay; details: 10 μM concentration
Sequence of sigma σ1 receptor (Q99720 whole entry): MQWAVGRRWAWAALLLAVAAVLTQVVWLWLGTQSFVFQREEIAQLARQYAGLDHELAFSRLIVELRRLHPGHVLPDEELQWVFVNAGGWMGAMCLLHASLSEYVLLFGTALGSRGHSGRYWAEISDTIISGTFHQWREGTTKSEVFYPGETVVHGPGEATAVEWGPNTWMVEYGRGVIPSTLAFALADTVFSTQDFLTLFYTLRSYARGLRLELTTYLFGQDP

[4] = Series C-2, 0.1 μM compound, relative to DAMGO
[5] = Series C-2, 0.1 μM compound, [35S]GTPγS binding to Gαo, striatal membranes
[6] = Series C-2, 1 μM compound + 1 μM β-FNA
[7] = Series C-2, 1 μM compound + β-FNA, relative to DAMGO + BFNA
[8] = Series C-2, 1 μM compound, relative to DAMGO
[9] = Series C-2, 1 μM compound, [35S]GTPγS binding to Gαo, striatal membranes
[10] = read-out: Percent Binding Inhibition, FLNA-binding compound 0.01 μM
[11] = read-out: Percent Binding Inhibition, FLNA-binding compound 0.1 μM
[12] = read-out: Percent Binding Inhibition, FLNA-binding compound 1 μM
[13] = FLNA-binding compound 0.01 μM, read-out: Percent Binding Inhibition
[14] = FLNA-binding compound 0.1 μM, read-out: Percent Binding Inhibition
[15] = FLNA-binding compound 1 μM, read-out: Percent Binding Inhibition
[16] = 0.1 μM compound relative to DAMGO
[17] = 1 μM compound + BFNA relative to DAMGO + BFNA
[18] = 1 μM compound relative to DAMGO
[19] = Series B, 0.1 μM compound, relative to DAMGO
[20] = Series B, 0.1 μM compound, [35S]GTPγS binding to Gαo, striatal membranes
[21] = Series B, 1 μM compound + 1 μM β-FNA
[22] = Series B, 1 μM compound + β-FNA, relative to DAMGO + BFNA
[23] = Series B, 1 μM compound, relative to DAMGO
[24] = Series B, 1 μM compound, [35S]GTPγS binding to Gαo, striatal membranes

SMILES	Glucose utilization [1]	Glucose utilization (melanoma cells (A2058))	Glucose utilization [2]	Glucose uptake / glucose content (primary lung fibroblasts)	inhibition at 0.01 µM [3, 13] [%]	inhibition at 0.1 µM [3, 14] [%]	inhibition at 1 µM [3, 15] [%]	MOR agonist activity ([35S]GTPγS binding), FLNA-Binding Compound as Agonist 0.1 μM (mu opiate receptor (MOR); 0.1 μM compound) [%]	% DAMGO (0.1 μM) (mu opiate receptor (MOR); [16]) [%]	MOR agonist activity ([35S]GTPγS binding), FLNA-Binding Compound as Agonist 1 μM (mu opiate receptor (MOR); 1 μM compound) [%]	MOR agonist activity ([35S]GTPγS binding), FLNA-Binding Compound as Agonist 1 μM + BFNA (mu opiate receptor (MOR)) [%]	% DAMGO + BFNA (mu opiate receptor (MOR); [17]) [%]	% DAMGO (1 μM) (mu opiate receptor (MOR); [18]) [%]	also measured
CC(=O)c1ccc(S(=O)(=O)N2CC(CN(C)C)OC23CCN(C)CC3)cc1 (stereo not drawn) [Compound C0108M]	decreased the elevated glucose utilization	decreased the elevated glucose utilization	decreased the elevated glucose utilization	no significant inhibition in glucose content	–	–	–	–	–	–	–	–	–	% DAMGO (0.1 μM) (mu opiate receptor (MOR); [4]): 108.7%; MOR agonist activity, percent [35S]GTPγS binding at the stated compound concentration (mu opiate receptor (MOR); [5]): 205.6%; MOR agonist activity, percent [35S]GTPγS binding at the stated compound concentration (mu opiate receptor (MOR); [6]): 76.9%; % DAMGO + BFNA (mu opiate receptor (MOR); [7]): 158.6%; % DAMGO (1 μM) (mu opiate receptor (MOR); [8]): 104.1%; MOR agonist activity, percent [35S]GTPγS binding at the stated compound concentration (mu opiate receptor (MOR); [9]): 258.5%; inhibition at 0.01 µM [3, 10]: 54.6%; inhibition at 0.1 µM [3, 11]: 61.4%; inhibition at 1 µM [3, 12]: 68.7%
Cc1ccc(S(=O)(=O)N2CCOC23CCN(CC2CC2)CC3)cc1 [Compound C0134M]	decreased the elevated glucose utilization	decreased the elevated glucose utilization	decreased the elevated glucose utilization	no significant inhibition in glucose content	55.7	60.5	61.9	–	–	–	–	–	–	MOR agonist activity, FLNA-Binding Compound as Agonist 0.1 μM (preliminary study) (mu opiate receptor (MOR); 0.1 μM, average of two runs): 150.7%; MOR agonist activity, FLNA-Binding Compound as Agonist 1 μM + βNFA (preliminary study) (mu opiate receptor (MOR); 1 μM + βNFA, average of two runs): 53.2%; MOR agonist activity, FLNA-Binding Compound as Agonist 1 μM (preliminary study) (mu opiate receptor (MOR); 1 μM, average of two runs): 224.0%; % DAMGO (0.1 μM) (mu opiate receptor (MOR); [4]): 94.6%; MOR agonist activity, percent [35S]GTPγS binding at the stated compound concentration (mu opiate receptor (MOR); [5]): 158.5%; MOR agonist activity, percent [35S]GTPγS binding at the stated compound concentration (mu opiate receptor (MOR); [6]): 46.6%; % DAMGO + BFNA (mu opiate receptor (MOR); [7]): 98.1%; % DAMGO (1 μM) (mu opiate receptor (MOR); [8]): 93.3%; MOR agonist activity, percent [35S]GTPγS binding at the stated compound concentration (mu opiate receptor (MOR); [9]): 207.3%
O=C1CN(Cc2ccccc2)C2(CCN(S(=O)(=O)c3cc(Cl)c(O)c(Cl)c3)CC2)N1 [Compound C0139M]	decreased the elevated glucose utilization	decreased the elevated glucose utilization	decreased the elevated glucose utilization	no significant inhibition in glucose content	–	–	–	–	–	–	–	–	–	% DAMGO (0.1 μM) (mu opiate receptor (MOR); Series C-1, 0.1 μM compound, relative to DAMGO): 106.2%; % DAMGO + BFNA (mu opiate receptor (MOR); Series C-1, 1 μM compound + β-FNA, relative to DAMGO + BFNA): 129.8%; % DAMGO (1 μM) (mu opiate receptor (MOR); Series C-1, 1 μM compound, relative to DAMGO): 102.2%; Binding to any of more than 65 assayed receptors (more than 65 receptors): no significant binding
CC1CCC(C(C)C)C(OCC(CN2CC(C)OC(C)C2)NCc2ccccc2)C1 (stereo not drawn) [Compound A0033]	decreased the elevated glucose utilization	decreased the elevated glucose utilization	decreased the elevated glucose utilization	no significant inhibition in glucose content	46.4	51.8	56.5	155.8	79.4	254.6	118.2	159.9	92.2	–
O=C1CNC2(CCN(CC3CC3)CC2)N1Cc1ccccc1 [Compound C0124M]	decreased the elevated glucose utilization	decreased the elevated glucose utilization	decreased the elevated glucose utilization	no significant inhibition in glucose content	47.7	52.2	58.7	–	–	–	–	–	–	–
COc1c2c(cc3c1C(CC(=O)Cc1ccccc1F)[N+](C)(C)CC3)OCO2 (stereo not drawn) [Compound B0055]	decreased the elevated glucose utilization	decreased the elevated glucose utilization	decreased the elevated glucose utilization	no significant inhibition in glucose content	–	–	–	–	–	–	–	–	–	% DAMGO (0.1 μM) (mu opiate receptor (MOR); [19]): 91.8%; MOR agonist activity, percent [35S]GTPγS binding at the stated compound concentration (mu opiate receptor (MOR); [20]): 162.1%; MOR agonist activity, percent [35S]GTPγS binding at the stated compound concentration (mu opiate receptor (MOR); [21]): 117.5%; % DAMGO + BFNA (mu opiate receptor (MOR); [22]): 446.8%; % DAMGO (1 μM) (mu opiate receptor (MOR); [23]): 133.1%; MOR agonist activity, percent [35S]GTPγS binding at the stated compound concentration (mu opiate receptor (MOR); [24]): 338.5%
CC1CN(CC(O)COc2cccc(F)c2)CC(C)O1 (stereo not drawn) [Compound A0049]	–	–	–	–	46.2	49.4	49.3	232.3	118.4	370.3	107.1	144.9	134.2	Activity at sigma σ1 receptor (sigma σ1 receptor): antagonist
COc1ccc(OCC(O)CN2CCc3ccccc3C2)cc1 (stereo not drawn) [Compound A0053]	decreased the elevated glucose utilization	decreased the elevated glucose utilization	decreased the elevated glucose utilization	no significant inhibition in glucose content	–	–	–	78.5	46.5	118.2	15.1	46.2	47.5	inhibition at 0.01 µM [3, 10]: 34.8%; inhibition at 0.1 µM [3, 11]: 40%; inhibition at 1 µM [3, 12]: 46.9%
COc1c2c(cc3c1C(CC(=O)CCc1ccccc1)N(C)CC3)OCO2 (stereo not drawn) [Compound B0050]	–	–	–	–	29.2	34.5	39.8	–	–	–	–	–	–	% DAMGO (0.1 μM) (mu opiate receptor (MOR); [19]): 58.1%; MOR agonist activity, percent [35S]GTPγS binding at the stated compound concentration (mu opiate receptor (MOR); [20]): 98.2%; MOR agonist activity, percent [35S]GTPγS binding at the stated compound concentration (mu opiate receptor (MOR); [21]): 48.8%; % DAMGO + BFNA (mu opiate receptor (MOR); [22]): 294.0%; % DAMGO (1 μM) (mu opiate receptor (MOR); [23]): 96.4%; MOR agonist activity, percent [35S]GTPγS binding at the stated compound concentration (mu opiate receptor (MOR); [24]): 211.0%
